Source: ChEMBL document CHEMBL3217454, “Structureactivity relationship studies using peptide arrays: the example of HIV-1 Revintegrase interaction” (Medchemcomm, 2013)
Square brackets hold non-standard residues; d marks the D form. Peptide text beside a SMILES is read from it. NMeK = CN[C@@H](CCCCN)C(=O)O; NMeA = CN[C@@H](C)C(=O)O

Tests used:
[1] = system: Human immunodeficiency virus 1; assay: Binding affinity to HLT-tagged HIV-1 Rev measured after overnight incubation by chemiluminescence analysis relative to IN 118-128; parameters: concentration or dose not given beside the values
[2] = target: Human immunodeficiency virus type 1 integrase (Human immunodeficiency virus 1) (UniProt Q7ZJM1); assay: Binding affinity to HIV-1 integrase measured after overnight incubation by chemiluminescence analysis relative to IN 118-128; parameters: concentration or dose not given beside the values
Chain of Human immunodeficiency virus type 1 integrase (Human immunodeficiency virus 1) (Q7ZJM1 as listed by the source): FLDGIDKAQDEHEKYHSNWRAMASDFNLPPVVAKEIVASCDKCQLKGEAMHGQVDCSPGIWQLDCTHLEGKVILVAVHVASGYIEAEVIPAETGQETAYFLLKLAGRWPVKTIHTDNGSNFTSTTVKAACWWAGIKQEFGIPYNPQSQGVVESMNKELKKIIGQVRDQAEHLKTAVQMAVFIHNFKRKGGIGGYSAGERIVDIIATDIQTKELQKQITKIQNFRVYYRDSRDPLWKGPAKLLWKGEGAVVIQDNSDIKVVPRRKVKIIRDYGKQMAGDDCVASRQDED

Row | Compound | Activity [1] [%] | Activity [2] [%]
1 | CC(C)[C@@H](NC(=O)[C@@H](NC(=O)[C@@H](NC(=O)[C@H](CO)NC(=O)[C@@H](NC(=O)[C@H](Cc1ccccc1)NC(=O)[C@H](CC(N)=O)NC(=O)[C@H](CO)NC(=O)CN)[C@@H](C)O)[C@@H](C)O)[C@@H](C)O)C(=O)N[C@@H](CCCCN)C(=O)N[C@@H](C)C(=O)O | 107 | 97
2 | CC(C)[C@H](NC(=O)[C@@H](NC(=O)[C@@H](NC(=O)[C@@H](CO)NC(=O)[C@@H](NC(=O)[C@H](Cc1ccccc1)NC(=O)[C@H](CC(N)=O)NC(=O)[C@H](CO)NC(=O)CN)[C@@H](C)O)[C@@H](C)O)[C@@H](C)O)C(=O)N[C@@H](CCCCN)C(=O)N[C@@H](C)C(=O)O | 124 | 92
3 | CC(C)[C@H](NC(=O)[C@@H](NC(=O)[C@@H](NC(=O)[C@H](CO)NC(=O)[C@@H](NC(=O)[C@@H](Cc1ccccc1)NC(=O)[C@H](CC(N)=O)NC(=O)[C@H](CO)NC(=O)CN)[C@@H](C)O)[C@@H](C)O)[C@@H](C)O)C(=O)N[C@@H](CCCCN)C(=O)N[C@@H](C)C(=O)O | 211 | 229
4 | CC(C)[C@H](NC(=O)[C@@H](NC(=O)[C@@H](NC(=O)[C@H](CO)NC(=O)[C@@H](NC(=O)[C@H](Cc1ccccc1)NC(=O)[C@@H](CC(N)=O)NC(=O)[C@H](CO)NC(=O)CN)[C@@H](C)O)[C@@H](C)O)[C@@H](C)O)C(=O)N[C@@H](CCCCN)C(=O)N[C@@H](C)C(=O)O | 144 | 133
5 | CC(C)[C@H](NC(=O)[C@@H](NC(=O)[C@@H](NC(=O)[C@H](CO)NC(=O)[C@@H](NC(=O)[C@H](Cc1ccccc1)NC(=O)[C@H](CC(N)=O)NC(=O)[C@@H](CO)NC(=O)CN)[C@@H](C)O)[C@@H](C)O)[C@@H](C)O)C(=O)N[C@@H](CCCCN)C(=O)N[C@@H](C)C(=O)O | 190 | 346
6 | CC(C)[C@H](NC(=O)[C@@H](NC(=O)[C@@H](NC(=O)[C@H](CO)NC(=O)[C@@H](NC(=O)[C@H](Cc1ccccc1)NC(=O)[C@H](CC(N)=O)NC(=O)[C@H](CO)NC(=O)CN)[C@@H](C)O)[C@@H](C)O)[C@@H](C)O)C(=O)N[C@@H](CCCCN)C(=O)N[C@H](C)C(=O)O | 137 | 136
7 | CC(C)[C@H](NC(=O)[C@@H](NC(=O)[C@@H](NC(=O)[C@H](CO)NC(=O)[C@@H](NC(=O)[C@H](Cc1ccccc1)NC(=O)[C@H](CC(N)=O)NC(=O)[C@H](CO)NC(=O)CN)[C@@H](C)O)[C@@H](C)O)[C@@H](C)O)C(=O)N[C@H](CCCCN)C(=O)N[C@@H](C)C(=O)O | 53 | 109
8 | CC(C)[C@H](NC(=O)[C@@H](NC(=O)[C@@H](NC(=O)[C@H](CO)NC(=O)[C@H](NC(=O)[C@H](Cc1ccccc1)NC(=O)[C@H](CC(N)=O)NC(=O)[C@H](CO)NC(=O)CN)[C@@H](C)O)[C@@H](C)O)[C@@H](C)O)C(=O)N[C@@H](CCCCN)C(=O)N[C@@H](C)C(=O)O | 52 | 58
9 | CC(C)[C@H](NC(=O)[C@@H](NC(=O)[C@H](NC(=O)[C@H](CO)NC(=O)[C@@H](NC(=O)[C@H](Cc1ccccc1)NC(=O)[C@H](CC(N)=O)NC(=O)[C@H](CO)NC(=O)CN)[C@@H](C)O)[C@@H](C)O)[C@@H](C)O)C(=O)N[C@@H](CCCCN)C(=O)N[C@@H](C)C(=O)O | 176 | 150
10 | CC(C)[C@H](NC(=O)[C@H](NC(=O)[C@@H](NC(=O)[C@H](CO)NC(=O)[C@@H](NC(=O)[C@H](Cc1ccccc1)NC(=O)[C@H](CC(N)=O)NC(=O)[C@H](CO)NC(=O)CN)[C@@H](C)O)[C@@H](C)O)[C@@H](C)O)C(=O)N[C@@H](CCCCN)C(=O)N[C@@H](C)C(=O)O | 60 | 85
11 | CC(C)[C@H](NC(=O)[C@@H](NC(=O)[C@@H](NC(=O)[C@H](CO)NC(=O)[C@@H](NC(=O)[C@H](Cc1ccccc1)NC(=O)[C@H](CC(N)=O)NC(=O)[C@H](CO)NC(=O)[C@H](C)N)[C@@H](C)O)[C@@H](C)O)[C@@H](C)O)C(=O)N[C@@H](CCCCN)C(=O)N[C@@H](C)C(=O)O (H-ASNFTSTTVKA-OH) | 77 | 116
12 | CC(C)[C@H](NC(=O)[C@@H](NC(=O)[C@@H](NC(=O)[C@H](CO)NC(=O)[C@@H](NC(=O)[C@@H](N)Cc1ccccc1)[C@@H](C)O)[C@@H](C)O)[C@@H](C)O)C(=O)N[C@@H](CCCCN)C(=O)N[C@@H](C)C(=O)O (H-FTSTTVKA-OH) | 280 | 236
13 | CC(C)[C@H](NC(=O)[C@@H](NC(=O)[C@@H](NC(=O)[C@H](CO)NC(=O)[C@@H](NC(=O)[C@H](Cc1ccccc1)NC(=O)[C@H](CC(N)=O)NC(=O)[C@H](C)NC(=O)CN)[C@@H](C)O)[C@@H](C)O)[C@@H](C)O)C(=O)N[C@@H](CCCCN)C(=O)N[C@@H](C)C(=O)O (H-GANFTSTTVKA-OH) | 146 | 177
14 | CC(C)[C@H](NC(=O)[C@@H](NC(=O)[C@@H](NC(=O)[C@H](CO)NC(=O)[C@@H](NC(=O)[C@H](Cc1ccccc1)NC(=O)[C@H](C)NC(=O)[C@H](CO)NC(=O)CN)[C@@H](C)O)[C@@H](C)O)[C@@H](C)O)C(=O)N[C@@H](CCCCN)C(=O)N[C@@H](C)C(=O)O (H-GSAFTSTTVKA-OH) | 151 | 198
15 | CC(C)[C@H](NC(=O)[C@@H](NC(=O)[C@@H](NC(=O)[C@H](CO)NC(=O)[C@@H](NC(=O)[C@H](C)NC(=O)[C@H](CC(N)=O)NC(=O)[C@H](CO)NC(=O)CN)[C@@H](C)O)[C@@H](C)O)[C@@H](C)O)C(=O)N[C@@H](CCCCN)C(=O)N[C@@H](C)C(=O)O (H-GSNATSTTVKA-OH) | 31 | 133
16 | CC(C)[C@H](NC(=O)[C@@H](NC(=O)[C@@H](NC(=O)[C@H](CO)NC(=O)[C@H](C)NC(=O)[C@H](Cc1ccccc1)NC(=O)[C@H](CC(N)=O)NC(=O)[C@H](CO)NC(=O)CN)[C@@H](C)O)[C@@H](C)O)C(=O)N[C@@H](CCCCN)C(=O)N[C@@H](C)C(=O)O (H-GSNFASTTVKA-OH) | 120 | 228
17 | CC(C)[C@H](NC(=O)[C@@H](NC(=O)[C@@H](NC(=O)[C@H](C)NC(=O)[C@@H](NC(=O)[C@H](Cc1ccccc1)NC(=O)[C@H](CC(N)=O)NC(=O)[C@H](CO)NC(=O)CN)[C@@H](C)O)[C@@H](C)O)[C@@H](C)O)C(=O)N[C@@H](CCCCN)C(=O)N[C@@H](C)C(=O)O (H-GSNFTATTVKA-OH) | 182 | 135
18 | C[C@@H](O)[C@H](NC(=O)[C@H](Cc1ccccc1)NC(=O)[C@H](CC(N)=O)NC(=O)[C@H](CO)NC(=O)CN)C(=O)N[C@@H](CO)C(=O)O (H-GSNFTS-OH) | 0 | 0
19 | CC(C)[C@H](NC(=O)[C@@H](NC(=O)[C@H](C)NC(=O)[C@H](CO)NC(=O)[C@@H](NC(=O)[C@H](Cc1ccccc1)NC(=O)[C@H](CC(N)=O)NC(=O)[C@H](CO)NC(=O)CN)[C@@H](C)O)[C@@H](C)O)C(=O)N[C@@H](CCCCN)C(=O)N[C@@H](C)C(=O)O (H-GSNFTSATVKA-OH) | 107 | 231
20 | C[C@@H](O)[C@H](NC(=O)[C@H](CO)NC(=O)[C@@H](NC(=O)[C@H](Cc1ccccc1)NC(=O)[C@H](CC(N)=O)NC(=O)[C@H](CO)NC(=O)CN)[C@@H](C)O)C(=O)O (H-GSNFTST-OH) | 0 | 34
21 | CC(C)[C@H](NC(=O)[C@H](C)NC(=O)[C@@H](NC(=O)[C@H](CO)NC(=O)[C@@H](NC(=O)[C@H](Cc1ccccc1)NC(=O)[C@H](CC(N)=O)NC(=O)[C@H](CO)NC(=O)CN)[C@@H](C)O)[C@@H](C)O)C(=O)N[C@@H](CCCCN)C(=O)N[C@@H](C)C(=O)O (H-GSNFTSTAVKA-OH) | 124 | 182
22 | C[C@@H](O)[C@H](NC(=O)[C@@H](NC(=O)[C@H](CO)NC(=O)[C@@H](NC(=O)[C@H](Cc1ccccc1)NC(=O)[C@H](CC(N)=O)NC(=O)[C@H](CO)NC(=O)CN)[C@@H](C)O)[C@@H](C)O)C(=O)O (H-GSNFTSTT-OH) | 0 | 19
23 | C[C@H](NC(=O)[C@H](CCCCN)NC(=O)[C@H](C)NC(=O)[C@@H](NC(=O)[C@@H](NC(=O)[C@H](CO)NC(=O)[C@@H](NC(=O)[C@H](Cc1ccccc1)NC(=O)[C@H](CC(N)=O)NC(=O)[C@H](CO)NC(=O)CN)[C@@H](C)O)[C@@H](C)O)[C@@H](C)O)C(=O)O (H-GSNFTSTTAKA-OH) | 64 | 129
24 | CC(C)[C@H](NC(=O)[C@@H](NC(=O)[C@@H](NC(=O)[C@H](CO)NC(=O)[C@@H](NC(=O)[C@H](Cc1ccccc1)NC(=O)[C@H](CC(N)=O)NC(=O)[C@H](CO)NC(=O)CN)[C@@H](C)O)[C@@H](C)O)[C@@H](C)O)C(=O)O (H-GSNFTSTTV-OH) | 0 | 27
25 | CC(C)[C@H](NC(=O)[C@@H](NC(=O)[C@@H](NC(=O)[C@H](CO)NC(=O)[C@@H](NC(=O)[C@H](Cc1ccccc1)NC(=O)[C@H](CC(N)=O)NC(=O)[C@H](CO)NC(=O)CN)[C@@H](C)O)[C@@H](C)O)[C@@H](C)O)C(=O)N[C@@H](C)C(=O)N[C@@H](C)C(=O)O (H-GSNFTSTTVAA-OH) | 0 | 85
26 | CC(C)[C@H](NC(=O)[C@@H](NC(=O)[C@@H](NC(=O)[C@H](CO)NC(=O)[C@@H](NC(=O)[C@H](Cc1ccccc1)NC(=O)[C@H](CC(N)=O)NC(=O)[C@H](CO)NC(=O)CN)[C@@H](C)O)[C@@H](C)O)[C@@H](C)O)C(=O)N[C@@H](CCCCN)C(=O)O (H-GSNFTSTTVK-OH) | 201 | 242
27 | CC(C)[C@H](NC(=O)[C@@H](NC(=O)[C@@H](NC(=O)[C@H](CO)NC(=O)[C@@H](NC(=O)[C@H](Cc1ccccc1)NC(=O)[C@H](CC(N)=O)NC(=O)[C@H](CO)NC(=O)CN)[C@@H](C)O)[C@@H](C)O)[C@@H](C)O)C(=O)N[C@@H](CCCCN)C(=O)N(C)[C@@H](C)C(=O)O (H-GSNFTSTTVK[NMeA]-OH) | 141 | 136
28 | CC(C)[C@H](NC(=O)[C@@H](NC(=O)[C@@H](NC(=O)[C@H](CO)NC(=O)[C@@H](NC(=O)[C@H](Cc1ccccc1)NC(=O)[C@H](CC(N)=O)NC(=O)[C@H](CO)NC(=O)CN)[C@@H](C)O)[C@@H](C)O)[C@@H](C)O)C(=O)N(C)[C@@H](CCCCN)C(=O)N[C@@H](C)C(=O)O (H-GSNFTSTTV[NMeK]A-OH) | 191 | 185
